Measurements as given in paper PMC4774911, “Biochemical Screening of Five Protein Kinases from Plasmodium falciparum against 14,000 Cell-Active Compounds” (PLoS ONE, 2016).
“And” between values parts separate entries of the source, which are not always exact repeats. Equal entries are not always repeated.

How the values were obtained:
Assay in all cases: biochemical
MAPK3 = MAPK3 (Homo sapiens, UniProt P27361)
FER = FER (Homo sapiens, UniProt P16591)
MAP3K7 = target: T1, MAP3K7 (Homo sapiens, UniProt O43318)
T1 sequence (O43318 1-606): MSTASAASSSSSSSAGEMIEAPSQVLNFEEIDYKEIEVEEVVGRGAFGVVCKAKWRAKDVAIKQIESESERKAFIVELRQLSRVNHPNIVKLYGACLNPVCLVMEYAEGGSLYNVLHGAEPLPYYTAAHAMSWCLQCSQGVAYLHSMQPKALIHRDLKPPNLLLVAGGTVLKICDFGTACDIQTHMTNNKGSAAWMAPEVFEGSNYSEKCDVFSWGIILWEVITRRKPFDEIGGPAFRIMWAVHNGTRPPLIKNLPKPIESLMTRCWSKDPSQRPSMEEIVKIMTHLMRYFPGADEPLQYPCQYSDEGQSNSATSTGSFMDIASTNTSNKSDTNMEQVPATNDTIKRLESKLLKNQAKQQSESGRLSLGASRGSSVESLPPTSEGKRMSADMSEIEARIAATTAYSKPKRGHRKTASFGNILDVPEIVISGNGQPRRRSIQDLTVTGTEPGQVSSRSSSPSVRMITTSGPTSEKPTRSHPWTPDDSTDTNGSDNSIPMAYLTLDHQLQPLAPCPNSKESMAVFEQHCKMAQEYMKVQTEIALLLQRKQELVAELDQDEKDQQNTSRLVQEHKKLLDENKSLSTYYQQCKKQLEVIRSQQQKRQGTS

AURKA = target: T2, AURKA (Homo sapiens, UniProt O14965)
T2 sequence (O14965 1-403): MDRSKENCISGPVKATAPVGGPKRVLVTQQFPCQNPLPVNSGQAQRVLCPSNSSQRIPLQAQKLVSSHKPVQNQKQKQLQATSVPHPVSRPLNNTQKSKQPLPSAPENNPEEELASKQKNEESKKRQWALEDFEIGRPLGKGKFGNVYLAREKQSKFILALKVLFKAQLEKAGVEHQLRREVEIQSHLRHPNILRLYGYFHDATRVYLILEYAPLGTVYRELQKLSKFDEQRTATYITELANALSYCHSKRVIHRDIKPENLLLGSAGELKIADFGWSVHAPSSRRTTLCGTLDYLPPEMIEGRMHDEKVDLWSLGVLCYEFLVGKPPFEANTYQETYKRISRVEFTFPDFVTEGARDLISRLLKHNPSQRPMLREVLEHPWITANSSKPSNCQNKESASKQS

CLK1 = CLK1 (Homo sapiens, UniProt P49759)
CLK1, sequence (P49759 whole entry): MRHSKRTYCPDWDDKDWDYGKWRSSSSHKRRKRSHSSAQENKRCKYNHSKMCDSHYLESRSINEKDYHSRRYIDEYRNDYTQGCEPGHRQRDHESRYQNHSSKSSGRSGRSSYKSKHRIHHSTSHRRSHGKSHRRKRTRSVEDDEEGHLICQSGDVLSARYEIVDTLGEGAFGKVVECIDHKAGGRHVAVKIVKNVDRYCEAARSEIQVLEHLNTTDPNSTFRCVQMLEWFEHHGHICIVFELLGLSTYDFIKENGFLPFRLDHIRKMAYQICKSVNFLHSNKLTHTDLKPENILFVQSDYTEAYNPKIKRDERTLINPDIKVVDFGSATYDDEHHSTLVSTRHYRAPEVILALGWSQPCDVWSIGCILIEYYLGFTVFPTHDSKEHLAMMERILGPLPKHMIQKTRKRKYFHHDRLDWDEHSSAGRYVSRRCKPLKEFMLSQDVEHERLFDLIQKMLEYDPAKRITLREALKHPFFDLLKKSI

MAP3K6 = target: T3, MAP3K6 (Homo sapiens, UniProt O95382)
T3 sequence (O95382 1-1288): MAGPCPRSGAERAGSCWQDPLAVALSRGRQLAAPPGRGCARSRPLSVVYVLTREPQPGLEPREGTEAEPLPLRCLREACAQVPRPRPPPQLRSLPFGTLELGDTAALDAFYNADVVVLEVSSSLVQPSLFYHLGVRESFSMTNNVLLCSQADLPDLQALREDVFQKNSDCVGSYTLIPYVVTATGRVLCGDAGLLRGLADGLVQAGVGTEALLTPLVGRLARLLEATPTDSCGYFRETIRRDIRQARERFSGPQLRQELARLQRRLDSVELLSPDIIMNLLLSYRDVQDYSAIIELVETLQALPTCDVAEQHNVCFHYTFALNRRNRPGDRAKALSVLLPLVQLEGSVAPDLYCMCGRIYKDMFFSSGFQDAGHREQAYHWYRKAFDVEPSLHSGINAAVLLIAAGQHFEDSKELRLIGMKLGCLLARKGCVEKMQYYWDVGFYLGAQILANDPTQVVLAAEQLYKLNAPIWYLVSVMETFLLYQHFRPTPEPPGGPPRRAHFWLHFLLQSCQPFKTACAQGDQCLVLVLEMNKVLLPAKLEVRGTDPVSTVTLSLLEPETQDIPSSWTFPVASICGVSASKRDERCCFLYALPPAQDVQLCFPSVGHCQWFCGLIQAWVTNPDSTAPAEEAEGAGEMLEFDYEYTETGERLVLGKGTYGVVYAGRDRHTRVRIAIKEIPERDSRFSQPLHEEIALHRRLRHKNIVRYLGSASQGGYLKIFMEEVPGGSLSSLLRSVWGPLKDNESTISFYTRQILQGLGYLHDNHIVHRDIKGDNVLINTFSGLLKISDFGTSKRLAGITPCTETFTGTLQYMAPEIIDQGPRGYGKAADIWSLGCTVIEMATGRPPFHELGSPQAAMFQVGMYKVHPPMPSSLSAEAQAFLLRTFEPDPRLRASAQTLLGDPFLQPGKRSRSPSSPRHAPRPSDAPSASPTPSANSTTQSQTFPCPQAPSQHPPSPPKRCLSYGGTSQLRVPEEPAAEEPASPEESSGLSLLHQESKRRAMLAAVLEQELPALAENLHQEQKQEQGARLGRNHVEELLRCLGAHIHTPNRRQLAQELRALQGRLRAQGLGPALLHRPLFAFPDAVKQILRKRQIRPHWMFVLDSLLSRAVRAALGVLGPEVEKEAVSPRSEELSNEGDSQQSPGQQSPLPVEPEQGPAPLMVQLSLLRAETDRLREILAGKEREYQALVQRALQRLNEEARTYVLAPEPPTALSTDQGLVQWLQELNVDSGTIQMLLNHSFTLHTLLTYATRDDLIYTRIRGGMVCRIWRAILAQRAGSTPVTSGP

EIF2AK4 = EIF2AK4 (Homo sapiens, UniProt Q9P2K8)
EIF2AK4, sequence (Q9P2K8 whole entry): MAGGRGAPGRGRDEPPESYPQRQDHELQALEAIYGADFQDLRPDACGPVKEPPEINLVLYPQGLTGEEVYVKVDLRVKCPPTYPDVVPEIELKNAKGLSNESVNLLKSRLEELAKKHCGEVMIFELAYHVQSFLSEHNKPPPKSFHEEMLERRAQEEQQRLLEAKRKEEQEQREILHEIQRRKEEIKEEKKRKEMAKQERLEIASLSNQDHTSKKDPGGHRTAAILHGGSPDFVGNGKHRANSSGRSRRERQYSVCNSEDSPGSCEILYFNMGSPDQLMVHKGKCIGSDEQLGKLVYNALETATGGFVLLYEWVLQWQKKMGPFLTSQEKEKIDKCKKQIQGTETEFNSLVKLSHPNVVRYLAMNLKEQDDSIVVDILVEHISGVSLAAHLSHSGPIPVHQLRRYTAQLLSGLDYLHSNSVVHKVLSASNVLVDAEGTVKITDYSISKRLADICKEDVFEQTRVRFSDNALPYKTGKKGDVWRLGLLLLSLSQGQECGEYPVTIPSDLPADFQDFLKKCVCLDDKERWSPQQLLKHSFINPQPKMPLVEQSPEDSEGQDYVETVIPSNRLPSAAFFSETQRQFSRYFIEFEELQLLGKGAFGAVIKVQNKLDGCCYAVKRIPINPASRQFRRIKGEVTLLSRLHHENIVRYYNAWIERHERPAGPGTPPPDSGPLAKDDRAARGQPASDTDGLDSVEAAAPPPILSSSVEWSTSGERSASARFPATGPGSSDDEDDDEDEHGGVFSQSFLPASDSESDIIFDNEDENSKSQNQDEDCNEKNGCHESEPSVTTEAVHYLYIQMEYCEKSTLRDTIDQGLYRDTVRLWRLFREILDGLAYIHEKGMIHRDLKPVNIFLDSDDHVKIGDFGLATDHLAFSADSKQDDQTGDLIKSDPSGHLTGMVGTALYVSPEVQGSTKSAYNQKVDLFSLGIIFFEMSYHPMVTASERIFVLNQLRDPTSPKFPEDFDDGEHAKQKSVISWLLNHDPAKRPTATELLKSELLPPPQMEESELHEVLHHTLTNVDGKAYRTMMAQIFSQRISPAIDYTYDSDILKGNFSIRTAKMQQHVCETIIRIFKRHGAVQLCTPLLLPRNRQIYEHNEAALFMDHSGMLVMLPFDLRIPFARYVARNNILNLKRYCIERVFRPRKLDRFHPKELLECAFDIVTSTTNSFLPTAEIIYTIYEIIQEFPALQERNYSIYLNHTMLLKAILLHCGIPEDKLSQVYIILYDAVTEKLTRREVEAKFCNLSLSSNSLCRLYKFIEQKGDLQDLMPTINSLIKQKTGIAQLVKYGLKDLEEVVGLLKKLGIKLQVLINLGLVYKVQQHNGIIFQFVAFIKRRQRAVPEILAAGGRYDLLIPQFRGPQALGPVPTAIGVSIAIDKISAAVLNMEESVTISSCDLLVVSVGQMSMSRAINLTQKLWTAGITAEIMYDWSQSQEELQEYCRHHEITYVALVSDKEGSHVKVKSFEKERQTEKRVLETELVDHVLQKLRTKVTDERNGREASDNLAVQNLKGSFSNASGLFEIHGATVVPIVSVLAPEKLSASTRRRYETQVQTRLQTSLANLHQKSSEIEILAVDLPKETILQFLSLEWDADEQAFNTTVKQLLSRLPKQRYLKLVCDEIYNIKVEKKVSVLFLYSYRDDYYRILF

KIAA0999 = KIAA0999 (Homo sapiens, UniProt Q9Y2K2)
CIT = CIT (Homo sapiens, UniProt O14578)
CIT, sequence (O14578 whole entry): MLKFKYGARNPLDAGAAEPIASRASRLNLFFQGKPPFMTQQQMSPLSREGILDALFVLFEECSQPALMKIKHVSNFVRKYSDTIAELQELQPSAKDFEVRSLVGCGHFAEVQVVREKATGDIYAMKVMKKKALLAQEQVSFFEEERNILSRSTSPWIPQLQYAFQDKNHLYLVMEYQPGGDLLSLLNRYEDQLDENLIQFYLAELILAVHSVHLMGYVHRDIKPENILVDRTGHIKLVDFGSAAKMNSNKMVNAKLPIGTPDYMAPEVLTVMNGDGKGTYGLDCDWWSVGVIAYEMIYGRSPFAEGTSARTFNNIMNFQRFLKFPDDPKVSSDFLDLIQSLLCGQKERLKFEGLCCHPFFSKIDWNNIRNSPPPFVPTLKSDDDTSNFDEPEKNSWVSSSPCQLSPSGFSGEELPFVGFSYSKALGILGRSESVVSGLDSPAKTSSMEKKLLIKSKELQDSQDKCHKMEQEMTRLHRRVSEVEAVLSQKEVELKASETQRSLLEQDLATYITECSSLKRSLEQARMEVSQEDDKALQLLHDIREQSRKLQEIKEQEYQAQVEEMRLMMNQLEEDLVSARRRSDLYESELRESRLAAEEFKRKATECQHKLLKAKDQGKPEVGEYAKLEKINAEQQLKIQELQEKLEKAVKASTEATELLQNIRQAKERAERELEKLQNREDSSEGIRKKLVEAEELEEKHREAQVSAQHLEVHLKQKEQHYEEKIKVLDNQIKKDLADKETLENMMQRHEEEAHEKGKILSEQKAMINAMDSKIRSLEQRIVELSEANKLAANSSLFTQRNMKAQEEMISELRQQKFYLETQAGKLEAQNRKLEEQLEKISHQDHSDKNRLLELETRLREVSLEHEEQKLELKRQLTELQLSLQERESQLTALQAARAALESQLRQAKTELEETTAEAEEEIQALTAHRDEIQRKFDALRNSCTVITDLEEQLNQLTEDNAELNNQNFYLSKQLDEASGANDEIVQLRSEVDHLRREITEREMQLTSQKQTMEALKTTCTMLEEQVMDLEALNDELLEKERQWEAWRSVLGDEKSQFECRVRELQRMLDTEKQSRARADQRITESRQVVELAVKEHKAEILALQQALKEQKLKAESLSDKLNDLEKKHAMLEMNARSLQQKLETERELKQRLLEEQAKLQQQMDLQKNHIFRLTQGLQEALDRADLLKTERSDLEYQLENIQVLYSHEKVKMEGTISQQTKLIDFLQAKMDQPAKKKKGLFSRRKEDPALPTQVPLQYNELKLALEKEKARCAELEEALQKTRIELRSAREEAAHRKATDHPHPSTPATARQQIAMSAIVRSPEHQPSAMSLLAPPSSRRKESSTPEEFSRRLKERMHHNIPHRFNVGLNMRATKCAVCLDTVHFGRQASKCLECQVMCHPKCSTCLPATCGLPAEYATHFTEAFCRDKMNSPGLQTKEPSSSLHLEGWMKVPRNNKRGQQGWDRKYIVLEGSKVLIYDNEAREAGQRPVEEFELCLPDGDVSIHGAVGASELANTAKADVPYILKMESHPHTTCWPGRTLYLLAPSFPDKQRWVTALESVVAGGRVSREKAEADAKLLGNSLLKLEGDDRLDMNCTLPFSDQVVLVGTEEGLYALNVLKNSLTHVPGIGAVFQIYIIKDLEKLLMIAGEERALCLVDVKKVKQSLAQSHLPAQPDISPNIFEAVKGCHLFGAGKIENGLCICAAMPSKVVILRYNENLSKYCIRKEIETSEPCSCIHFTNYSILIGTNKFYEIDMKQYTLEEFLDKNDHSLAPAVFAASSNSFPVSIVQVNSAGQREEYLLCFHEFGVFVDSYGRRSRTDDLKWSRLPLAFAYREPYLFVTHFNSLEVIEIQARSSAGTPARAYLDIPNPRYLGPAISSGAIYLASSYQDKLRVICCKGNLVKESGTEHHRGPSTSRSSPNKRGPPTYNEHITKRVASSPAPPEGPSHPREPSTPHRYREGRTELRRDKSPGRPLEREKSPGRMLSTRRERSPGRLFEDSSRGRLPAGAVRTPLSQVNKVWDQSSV

MAPK3, sequence (P27361 whole entry): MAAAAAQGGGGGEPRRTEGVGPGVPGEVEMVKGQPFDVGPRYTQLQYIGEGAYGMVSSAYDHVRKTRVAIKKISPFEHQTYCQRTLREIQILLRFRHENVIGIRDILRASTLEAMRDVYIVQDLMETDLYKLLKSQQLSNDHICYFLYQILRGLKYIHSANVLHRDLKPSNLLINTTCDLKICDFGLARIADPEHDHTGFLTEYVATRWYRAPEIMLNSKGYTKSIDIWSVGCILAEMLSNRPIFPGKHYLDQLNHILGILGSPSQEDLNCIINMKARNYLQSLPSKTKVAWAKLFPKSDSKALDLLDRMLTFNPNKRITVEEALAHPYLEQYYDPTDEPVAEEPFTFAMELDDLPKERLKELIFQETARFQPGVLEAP

SMILES | IC50 (MAPK3) | IC50 (FER) | IC50 (MAP3K7) | IC50 (AURKA) | IC50 (CLK1) | IC50 (MAP3K6) | IC50 (EIF2AK4) | IC50 (KIAA0999) | IC50 (CIT)
CN(C)CC(O)COc1ccc(Nc2ncc([N+](=O)[O-])c(Nc3ccccc3O)n2)cc1.O=C(O)C(F)(F)F (stereo not drawn) [TCMDC-141399] | > 20000 nM | 930 nM and 810 nM | > 20000 nM | > 20000 nM | 390 nM and 270 nM | > 20000 nM | 260 nM and 350 nM | > 20000 nM | 4400 nM
Cl.NCC1(c2nc(-c3ccc(Cl)c(O)c3)c(-c3ccncc3)[nH]2)CCCCC1 [TCMDC-141154] | > 20000 nM | > 20000 nM | > 20000 nM | > 20000 nM | > 20000 nM | > 20000 nM | > 20000 nM | 66 nM and 51 nM | 160 nM and 280 nM
CN1CCN(c2ccc(Nc3ncc(C#N)c(Nc4ccccc4C(N)=O)n3)cc2)CC1.Cl [TCMDC-134116] | > 20000 nM | 220 nM and 210 nM | 2000 nM and 1100 nM | ≤ 32 nM and 52 nM | 47 nM and 48 nM | 1600 nM and 1400 nM | 240 nM and 210 nM | 350 nM and 250 nM | 5700 nM and 5800 nM
